Experimental data reported in patent US10457707B2, “Substituted urea depsipeptide analogs as activators of the CLPP endopeptidase” (priority 2015, dated 2019).
In brackets after ≈: the same amount, converted by molar mass. *1 amine or outer side, *2 acyl side, *3 side chain or, on linkers, in order; H or OH if unused. Where a SMILES comes first, the peptide text is derived from it. Bridges are numbered along the chain shown (N, C = ends). [ ]: non-standard residue; d: D form. The star is where a group is joined. Piperazine(2S-CO,4-Me) = CN1CCN[C@H](C(=O)O)C1; Phe(3,5-F2) = N[C@@H](Cc1cc(F)cc(F)c1)C(=O)O; Morpholine(3S-CO) = O=C(O)[C@@H]1COCCN1; NH(4-Cl-2-F-phenyl) = Fc1cc(Cl)ccc1N*; Pro(4R-Me) = C[C@H]1CN[C@H](C(=O)O)C1; Hyp = O=C(O)[C@@H]1C[C@@H](O)CN1; aThr = C[C@H](O)[C@H](N)C(=O)O; Pip = O=C(O)[C@@H]1CCCCN1; X1 = N#Cc1cc(N*)ccc1F; CO = O=C([*:1])[*:2]

How the values were obtained:
[1] = tested on: Streptococcus pyogenes, ATCC 700294; test: Minimal inhibitory concentration assay (microbroth dilution); type: cell-based; settings: Streptococcus pyogenes, ATCC700294; read-out: Minimal Inhibitory Concentrations S. pyogenes ATCC 700294
In short: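 CLSI broth microdilution: two-fold serial compound dilutions in appropriate broth, inoculated and incubated aerobically overnight at 37° C. MIC read visually as lowest concentration preventing bacterial growth.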

[2] = Cytotoxicity assay (CellTiter-Glo cell viability, 72 hours); type: cell-based; settings: African green monkey
In short: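 Vero cells, 5000/well, grown overnight at 37° C, 5% CO2 in DMEM with 10% FBS, then exposed to serial compound dilutions or DMSO for 72 hours. Viability read by CellTiter-Glo luminescence. IC50 from duplicate wells, reported as range over two independent experiments.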

Sa-ClpP = biological target: T1, Sa-ClpP (Staphylococcus aureus, UniProt Q2G036); test: ADEP displacement fluorescence polarization assay (FP probe ADEP 2591); type: binding
T1 construct: made in house; host or cells: E. coli BL21(DE3)
T1 sequence (Q2G036 1-195): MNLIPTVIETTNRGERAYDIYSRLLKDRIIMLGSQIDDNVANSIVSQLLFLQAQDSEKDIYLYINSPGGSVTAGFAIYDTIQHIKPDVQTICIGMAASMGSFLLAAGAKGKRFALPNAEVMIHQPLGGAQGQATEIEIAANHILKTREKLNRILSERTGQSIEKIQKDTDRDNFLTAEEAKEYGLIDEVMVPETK
In short: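 Master mix of 15 μM S. aureus ClpP with 50 nM TAMRA-labelled ADEP 2591 probe in Tris-HCl pH 8.0, 2% DMSO, was pre-equilibrated 1 h, then incubated with compound 120 min at room temperature. Polarization (ex 530, em 579 nm) was normalized to 200 μM ADEP 2378 and DMSO controls; four-parameter fits, triplicate.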

For `C[C@@H]1C[C@H]2C(=O)OC[C@H](NC(=O)[C@H](Cc3cc(F)cc(F)c3)NC(=O)Nc3ccc4c(c3)OCO4)C(=O)N3C[C@H](O)C[C@H]3C(=O)N3CCCCC3C(=O)N[C@@H](C)C(=O)N2C1` (stereo partly drawn) [Compound 325, (S)-2-(3-(benzo[d][1,3]dioxol-5-yl)ureido)-3-(3,5-difluorophenyl)-N-((2R,6S,8aR,14aS,16R,20S,23aS)-16-hydroxy-2,6-dimethyl-5,8,14,19,23-pentaoxooctadecahydro-1H,5H,14H,19H-pyrido[2,1-i]dipyrrolo[2,1-c:2′,1′-l][1]oxa[4,7,10,13]tetraazacyclo-hexadecin-20-yl)propanamide], the MIC [1] was 0.156 µM (≈ 0.131 µg/mL), the IC50 at 72 h [2] was > 100 µM and the IC50 (Sa-ClpP) was 4.27 ± 0.2 µM.
For `C[C@@H]1C[C@H]2C(=O)O[C@@H](C)[C@H](NC(=O)[C@H](Cc3cc(F)cc(F)c3)NC(=O)Nc3ccc(F)c(C#N)c3)C(=O)N3C[C@H](O)C[C@H]3C(=O)N3CCOC[C@H]3C(=O)N[C@@H](C)C(=O)N2C1` [Compound 326, (S)-2-(3-(3-cyano-4-fluorophenyl)ureido)-3-(3,5-difluorophenyl)-N-((6aS,8R,12S,13S,15aS,17R,21S,23aS)-8-hydroxy-13,17,21-trimethyl-6,11,15,20,23-pentaoxooctadecahydro-6H,11H,15H-[1,4]oxazino[3,4-i]dipyrrolo[2,1-c:2′,1′-l][1]oxa[4,7,10,13]tetraazacyclo-hexadecin-12-yl)propanamide] ({X1-CO}-[Phe(3,5-F2)][aThr][Hyp][Morpholine(3S-CO)]A[Pro(4R-Me)]; ester 2-C), the MIC [1] was 1.25 µM (≈ 1.07 µg/mL), the IC50 at 72 h [2] was > 100 µM and the IC50 (Sa-ClpP) was 7.52 ± 0.3 µM.
`C[C@@H]1C[C@H]2C(=O)O[C@@H](C)[C@H](NC(=O)[C@H](Cc3cc(F)cc(F)c3)NC(=O)Nc3ccc(Cl)cc3F)C(=O)N3C[C@H](O)C[C@H]3C(=O)N3CCCC[C@H]3C(=O)N[C@@H](C)C(=O)N2C1` [Compound 329, (S)-2-(3-(4-chloro-2-fluorophenyl)ureido)-3-(3,5-difluorophenyl)-N-((2R,6S,8aS,14aS,16R,20S,21S,23aS)-16-hydroxy-2,6,21-trimethyl-5,8,14,19,23-pentaoxooctadecahydro-1H,5H,14H,19H-pyrido[2,1-i]dipyrrolo[2,1-c:2′,1′-l][1]oxa[4,7,10,13]tetraazacyclo-hexadecin-20-yl)propanamide] ({NH(4-Cl-2-F-phenyl)-CO}-[Phe(3,5-F2)][aThr][Hyp][Pip]A[Pro(4R-Me)]; ester 2-C) gave an MIC [1] of 0.078 µM (≈ 0.0673 µg/mL), an IC50 at 72 h [2] of 24.5 ± 2.5 µM and an IC50 (Sa-ClpP) of 7.32 ± 0.4 µM.
With `C[C@@H]1C[C@H]2C(=O)OC[C@H](NC(=O)[C@H](Cc3cc(F)cc(F)c3)NC(=O)Nc3ccc(Cl)cc3F)C(=O)N3CCC[C@H]3C(=O)N3CCN(C)C[C@H]3C(=O)N[C@@H](C)C(=O)N2C1` [Compound 330, (S)-2-(3-(4-chloro-2-fluorophenyl)ureido)-3-(3,5-difluorophenyl)-N-((6aS,12S,15aS,17R,21S,23aS)-2,17,21-trimethyl-6,11,15,20,23-pentaoxooctadecahydro-2H,6H,11H,15H-pyrazino[2,1-i]dipyrrolo[2,1-c:2′,1′-l][1]oxa[4,7,10,13]tetraazacyclohexadecin-12-yl)propanamide] ({NH(4-Cl-2-F-phenyl)-CO}-[Phe(3,5-F2)]SP[Piperazine(2S-CO,4-Me)]A[Pro(4R-Me)]; ester 2-C) the MIC [1] was 0.078 µM (≈ 0.0661 µg/mL), the IC50 at 72 h [2] was > 50 µM and the IC50 (Sa-ClpP) was 3.74 ± 0.2 µM.
